Consider two compounds from US20260365655A1, “NEW USE OF JANUS KINASE (JAK)-DEGRADING AGENT BASED ON PROTEOLYSIS TARGETING CHIMERA (PROTAC)” (SHANGHAI SKIN DISEASE HOSPITAL, priority 2022, published 2026).

One test relates to RAW 264.7 cells. Nature of the test: NO content assay in LPS+IFN-γ induced RAW 264.7 macrophage inflammatory model. It counts as cell-based. The conditions noted are these: for NO level versus LPS+IFN-γ model group: 0.05, 0.1, 0.2 g/mL (so in the source), 0.4 and 0.8 μg/mL, 24 h, LPS 0.5 μg/mL + IFN-γ 2 ng/mL; for Inhibition of inflammation: concentration range of 0.05 μg/mL to 0.8 μg/mL; for Concentration of optimal anti-inflammatory effect: tested 0.05 μg/mL to 0.8 μg/mL. On the procedure: (1) Reagents: compound 1: a compound shown by Compound 1 in formula (I); compound 2: a compound shown by Compound 2 in Formula (I); DMEM high-glucose medium: Wuhan Pricella Biotechnology Co., Ltd.; South American FBS and trypsin: Gibco, USA; penicillin-streptomycin: Hyclone, USA; and nitric oxide (NO) assay kit: Beyotime.
(2) Instruments: CO2 incubator: HERA cell 240; and microplate reader: Thermo Fisher Scientific, USA.
Induction of an RAW 264.7 macrophage inflammatory model with lipopolysaccharide (LPS) and interferon-gamma (IFN-γ): RAW 264.7 cells in a logarithmic growth phase were taken and inoculated in a 96-well cell culture plate at 20×10^3 cells/well, and cultured for 24 h until the cells were adherent. Ablank control group of 0 μg/mL, a model group of 0.5 μg/mL LPS+2 ng/mL IFN-γ, and experimental groups of compounds 1 and 2 at concentrations of 0.05 μg/mL, 0.1 μg/mL, 0.2 μg/mL, 0.4 μg/mL, and 0.8 μg/mL were set. Three replicate wells were set for each group. In the blank control group, cells were incubated with serum-free DMEM. In the LPS+IFN-γ model group, cells were incubated with serum-free DMEM. After 24 h of incubation, morphological changes of cells were observed, and a concentration of NO was determined according to instructions of the NO assay kit.
The data of the present disclosure was processed with the Excel and Graphpad software. The experimental data were tested by one-way ANOVA. The post-hoc multiple comparison was conducted with the LSD. P<0.05 indicated a significant difference.

In test [1] the test system is mouse ear eczema model (ear thickness). Nature of the test: Mouse ear eczema model: ear thickness. The conditions noted are these: for Ear thickness, mean value: group mean; for Ear thickness: individual mice, two ears; for Ear thickness difference among Compound 1-, Compound 2-treating and positive drug groups / Ear thickness of model group versus treated groups: after the modeling; for Ear thickness of model group versus treated groups: result is for model group relative to the treated groups. It counts as in vivo, BALB/c mice.
From the text: (§1) (1) Preparation method of a JAK-PROTAC cream: the same as in Example 1.
(§2) (2) Positive therapeutic drug: a 0.050% dexamethasone acetate cream (manufacturer: Shanghai Skin Disease Hospital).
(§3) (3) Blank matrix: a matrix component produced after the active ingredient JAK-PROTAC was removed from the cream.
(§4) (4) Molding agent: solution of calcipotriol in ethanol (manufacturer: MACKLIN).
(§5) (1) The mice were randomly divided into a blank control group (6 mice) (Control), a model group (6 mice) (Model), a positive drug group (6 mice) (Positive), a Compound 1-treating group (0.15% JAK-PROTAC cream 1 for external use) (6 mice) (Treat 1), and a Compound 2-treating group (0.15% JAK-PROTAC cream 2 for external use) (6 mice) (Treat 2).
(2) Molding was conducted in the following manner:
(§6) A. On day 0 to day 7 of the modeling: At 9 a.m., the blank control group was administered with the cream matrix, the model group was administered with the molding agent, the positive group was administered with the molding agent, the Compound 1-treating group was administered with the molding agent, and the Compound 2-treating group was administered with the molding agent. At 5 p.m., the blank control group was not treated, the model group was administered with the cream matrix, the positive group was administered with the dexamethasone acetate cream, the Compound 1-treating group was administered with the JAK-PROTAC cream 1, and the Compound 2-treating group was administered with the JAK-PROTAC cream 2.
as §6, with “B.” for “A.”, “8” for “0”, “10” for “7”, “modeling, at” for “modeling: At”, “not treated,” for “administered with the molding agent,”, “not treated.” for “administered with the molding agent.”
C. On day 11 of the modeling: At 9 a.m., the blank control group was administered with the cream matrix, the model group was not treated, the positive group was not treated, the Compound 1-treating group was not treated, and the Compound 2-treating group was not treated. At 1 p.m., the mice were sacrificed through cervical dislocation, and the spleen and two ears of each mouse were collected.
(2) A body weight and thicknesses of two ears of each mouse were recorded daily.
The data of the present disclosure was processed with the Excel and GraphPad software. The experimental data was tested by one-way ANOVA. The post-hoc multiple comparison was conducted with the least significant difference (LSD). P<0.05 indicated a significant difference.

The subject of test [2] is mouse ear eczema model (atopic dermatitis). Nature of the test: Mouse ear eczema model (calcipotriol-induced): SCORAD of skin damage and overall therapeutic effect. Format: in vivo, BALB/c mice. The conditions noted are these: 0.15% cream for external use; result is for model group relative to the treated groups.
From the text: as §1, §2, §3, §4, §5
(2) Molding was conducted in the following manner: […]
(1) The photographing was conducted every day. The severity of skin damage in an ear application region was evaluated through SCORAD for mice. […] Each symptom was scored as 0 to 3 depending on the severity of a skin damage: asymptomatic: 0, mild: 1, moderate: 2, and severe: 3. […]

Where [3] appears, read: Day0, cream for external use (JAK-PROTAC 0.15%, dexamethasone acetate 0.050%).
[4] abbreviates: Day0 of modeling, cream for external use (JAK-PROTAC 0.15%, dexamethasone acetate 0.050%).

Each structure is given as a SMILES string. Values joined by “and” are separate entries in the source; they are usually repeats but may differ in a detail not shown here. Equal values may be shown once.

Take `N#CC[C@H](C1CCCC1)n1cc(-c2nc(Nc3ccc(C(=O)NCCCCNc4cccc5c4C(=O)N(C4CCC(=O)NC4=O)C5=O)cc3)nc3[nH]ccc23)cn1` (stereo partly drawn) [Compound 1]: in the test with RAW 264.7 cells, the “NO level versus LPS+IFN-γ model group” value is reported as “reduced”. The Inhibition of inflammation result in the test on RAW 264.7 cells was “could effectively inhibit the inflammation”. Further, the “Concentration of optimal anti-inflammatory effect” value with RAW 264.7 cells came out at 0.4 µg/mL. Further, the “Ear thickness, mean value” in test [1] (setting [3]) is recorded as 0.24 mm; in test [1] (Day 1), 0.27 mm; in test [1] (Day2) it was 0.28 mm; in test [1] (Day3) it was 0.28 mm; in test [1] (Day4), 0.28 mm; in test [1] (Day5), 0.29 mm. In addition, the results for the “Ear thickness, mean value” in test [1] (Day6), in test [1] (Day7) and in test [1] (Day8) were 0.32 mm, 0.33 mm and 0.32 mm, respectively. Further, the Ear thickness in test [1] (setting [4]) is 0.23 mm (2×) and 0.24 mm (3×) and 0.26 mm and 0.25 mm (2×); in test [1] (Day 1), 0.26 mm (5×) and 0.29 mm and 0.28 mm and 0.27 mm; in test [1] (Day2), 0.30 mm (3×) and 0.27 mm (3×) and 0.28 mm and 0.24 mm; in test [1] (Day3), 0.30 mm and 0.31 mm and 0.26 mm and 0.28 mm and 0.27 mm (2×) and 0.29 mm and 0.24 mm; in test [1] (Day4), 0.27 mm (2×) and 0.33 mm and 0.31 mm and 0.30 mm and 0.25 mm (2×) and 0.28 mm; in test [1] (Day5) it was 0.32 mm (3×) and 0.29 mm and 0.28 mm (2×) and 0.30 mm and 0.24 mm. The Ear thickness in test [1] (Day6) is 0.34 mm and 0.35 mm (2×) and 0.36 mm and 0.31 mm and 0.30 mm and 0.25 mm and 0.33 mm; in test [1] (Day7) it was 0.33 mm (2×) and 0.32 mm and 0.37 mm and 0.35 mm and 0.36 mm and 0.26 mm and 0.34 mm; in test [1] (Day8), 0.30 mm and 0.33 mm and 0.32 mm (2×) and 0.35 mm and 0.37 mm and 0.24 mm and 0.34 mm. The “Ear thickness difference among Compound 1-, Compound 2-treating and positive drug groups” value in test [1] was “no significant difference among the Compound 1- and Compound 2-treating groups and the positive drug group (P>0.05)”. Besides, the “Ear thickness of model group versus treated groups” value in test [1] is “significantly larger than ear thicknesses of the Compound 1- and Compound 2-treating groups, the positive drug group, and the blank control group (P<0.05)”. Further, the “Erythema, scale, and infiltration scores and total scores (SCORAD) of model group versus treated groups” value in test [2] is “significantly higher than the respective scores in the Compound 1- and Compound 2-treating groups (P<0.05)”.
As to `CCS(=O)(=O)N1CC(CC#N)(n2cc(-c3nc(Nc4ccc(C(=O)NCCCCNc5cccc6c5C(=O)N(C5CCC(=O)NC5=O)C6=O)cc4)nc4[nH]ccc34)cn2)C1` (stereo not drawn) [Compound 2], the “NO level versus LPS+IFN-γ model group” value in the test with RAW 264.7 cells is given as “reduced”. In the test on RAW 264.7 cells, the Inhibition of inflammation result was “could effectively inhibit the inflammation”. In the test on RAW 264.7 cells, the “Concentration of optimal anti-inflammatory effect” value is 0.4 µg/mL. For the same compound, the “Ear thickness, mean value” is recorded as 0.22 mm in test [1] (setting [3]); 0.26 mm in test [1] (Day 1); 0.25 mm in test [1] (Day2); 0.26 mm in test [1] (Day3); 0.27 mm in test [1] (Day4); 0.29 mm in test [1] (Day5). For the same compound, the “Ear thickness, mean value” in test [1] (Day6) turned out to be 0.32 mm; in test [1] (Day7) it was 0.35 mm; in test [1] (Day8), 0.35 mm. Moreover, the Ear thickness in test [1] (setting [4]) is 0.22 mm (3×) and 0.24 mm (2×) and 0.21 mm (3×); in test [1] (Day 1), 0.28 mm and 0.29 mm and 0.24 mm (2×) and 0.25 mm (3×) and 0.26 mm; in test [1] (Day2), 0.23 mm (3×) and 0.29 mm and 0.21 mm and 0.26 mm (2×) and 0.25 mm; in test [1] (Day3), 0.26 mm (5×) and 0.27 mm and 0.24 mm and 0.25 mm; in test [1] (Day4), 0.29 mm and 0.27 mm and 0.26 mm (2×) and 0.28 mm (2×) and 0.25 mm and 0.24 mm; in test [1] (Day5) it was 0.29 mm (3×) and 0.30 mm (2×) and 0.28 mm and 0.31 mm and 0.26 mm. Besides, the Ear thickness in test [1] (Day6) is 0.32 mm (2×) and 0.33 mm (2×) and 0.31 mm (2×) and 0.30 mm (2×); in test [1] (Day7) it was 0.34 mm (2×) and 0.36 mm (5×) and 0.35 mm; in test [1] (Day8) it was 0.34 mm (4×) and 0.36 mm (2×) and 0.39 mm and 0.33 mm. In addition, the “Ear thickness difference among Compound 1-, Compound 2-treating and positive drug groups” value in test [1] was “no significant difference among the Compound 1- and Compound 2-treating groups and the positive drug group (P>0.05)”. Also, the “Ear thickness of model group versus treated groups” value in test [1] is “significantly larger than ear thicknesses of the Compound 1- and Compound 2-treating groups, the positive drug group, and the blank control group (P<0.05)”. For the same compound, the “Erythema, scale, and infiltration scores and total scores (SCORAD) of model group versus treated groups” value in test [2] was “significantly higher than the respective scores in the Compound 1- and Compound 2-treating groups (P<0.05)”.
